From patent publication US6864233B2, “Fungicidal echinocandin derivatives and their preparation” (Aventis Pharma S.A., priority 2000, dated 2005) come the findings set out here.

The assay deals with T1, Glucan Synthase of Candida Albicans (Candida albicans, UniProt O13428).
T1 construct: 22.5 μg of membrane proteins are incubated in a mixture of 2 mM of; endogenous in cells
Description: Inhibition of the glucan synthase of Candida albicans (14C-UDP glucose incorporation, membrane preparation). It counts as biochemical. Conditions: Candida albicans membranes, 25° C., 1 hour; result in words. The procedure: A—Inhibition of the Glucan Synthase of Candida Albicans.
Candida albicans membranes are purified according to the process described by Tang et al Antimicrob. Agents Chemother 35, 99-103, 1991. 22.5 μg of membrane proteins are incubated in a mixture of 2 mM of ^14C-UDP glucose (specific activity=0.34 mCi./mmol, 50 μg of a α-amylase, 1 mM of dithiotreitol (DTT), 1 mM EDTA, 100 mM NaF, 7 μM of GTP-γ-S, 1M of sucrose and 50 mM of Tris-HCL (pH 7.8) in a volume of 100 μl. The medium is incubated at 25° C. for 1 hour and the reaction is terminated by adding TCA at a final concentration of 5%. The reaction mixture is transferred onto a pre-moistened glass fibre filter. The filter is washed, dried and its radioactivity is counted. Mulundocandin is used as a positive control. Control of the vehicle is carried out with the same quantity of 1% DMSO.

*1 amine or outer side, *2 acyl side, *3 side chain or, on linkers, in order; H or OH if unused. Where a SMILES comes first, the peptide text is derived from it. Bridges are numbered along the chain shown (N, C = ends). [ ]: non-standard residue; d: D form. The star is where a group is joined. ξ: configuration not given here. X1 = CC(C)=CCCC(C)C1CCC2(C)C3=C(CCC12C)C1(C)CCC(OC(=O)*)C(C)(C)C1CC3; ξOrn(4,5-diOH) = O=C(C(CC(O)C(O)N[*:3])N[*:1])[*:2]; ξhTyr(βOH) = NC(C(=O)O)C(O)Cc1ccc(O)cc1; ξPro(3ξ-OH,4ξ-Me) = CC1CNC(C(=O)O)C1O; Hyp = O=C(O)[CH]1C[CH](O)CN1

T1 sequence (O13428 1-1897): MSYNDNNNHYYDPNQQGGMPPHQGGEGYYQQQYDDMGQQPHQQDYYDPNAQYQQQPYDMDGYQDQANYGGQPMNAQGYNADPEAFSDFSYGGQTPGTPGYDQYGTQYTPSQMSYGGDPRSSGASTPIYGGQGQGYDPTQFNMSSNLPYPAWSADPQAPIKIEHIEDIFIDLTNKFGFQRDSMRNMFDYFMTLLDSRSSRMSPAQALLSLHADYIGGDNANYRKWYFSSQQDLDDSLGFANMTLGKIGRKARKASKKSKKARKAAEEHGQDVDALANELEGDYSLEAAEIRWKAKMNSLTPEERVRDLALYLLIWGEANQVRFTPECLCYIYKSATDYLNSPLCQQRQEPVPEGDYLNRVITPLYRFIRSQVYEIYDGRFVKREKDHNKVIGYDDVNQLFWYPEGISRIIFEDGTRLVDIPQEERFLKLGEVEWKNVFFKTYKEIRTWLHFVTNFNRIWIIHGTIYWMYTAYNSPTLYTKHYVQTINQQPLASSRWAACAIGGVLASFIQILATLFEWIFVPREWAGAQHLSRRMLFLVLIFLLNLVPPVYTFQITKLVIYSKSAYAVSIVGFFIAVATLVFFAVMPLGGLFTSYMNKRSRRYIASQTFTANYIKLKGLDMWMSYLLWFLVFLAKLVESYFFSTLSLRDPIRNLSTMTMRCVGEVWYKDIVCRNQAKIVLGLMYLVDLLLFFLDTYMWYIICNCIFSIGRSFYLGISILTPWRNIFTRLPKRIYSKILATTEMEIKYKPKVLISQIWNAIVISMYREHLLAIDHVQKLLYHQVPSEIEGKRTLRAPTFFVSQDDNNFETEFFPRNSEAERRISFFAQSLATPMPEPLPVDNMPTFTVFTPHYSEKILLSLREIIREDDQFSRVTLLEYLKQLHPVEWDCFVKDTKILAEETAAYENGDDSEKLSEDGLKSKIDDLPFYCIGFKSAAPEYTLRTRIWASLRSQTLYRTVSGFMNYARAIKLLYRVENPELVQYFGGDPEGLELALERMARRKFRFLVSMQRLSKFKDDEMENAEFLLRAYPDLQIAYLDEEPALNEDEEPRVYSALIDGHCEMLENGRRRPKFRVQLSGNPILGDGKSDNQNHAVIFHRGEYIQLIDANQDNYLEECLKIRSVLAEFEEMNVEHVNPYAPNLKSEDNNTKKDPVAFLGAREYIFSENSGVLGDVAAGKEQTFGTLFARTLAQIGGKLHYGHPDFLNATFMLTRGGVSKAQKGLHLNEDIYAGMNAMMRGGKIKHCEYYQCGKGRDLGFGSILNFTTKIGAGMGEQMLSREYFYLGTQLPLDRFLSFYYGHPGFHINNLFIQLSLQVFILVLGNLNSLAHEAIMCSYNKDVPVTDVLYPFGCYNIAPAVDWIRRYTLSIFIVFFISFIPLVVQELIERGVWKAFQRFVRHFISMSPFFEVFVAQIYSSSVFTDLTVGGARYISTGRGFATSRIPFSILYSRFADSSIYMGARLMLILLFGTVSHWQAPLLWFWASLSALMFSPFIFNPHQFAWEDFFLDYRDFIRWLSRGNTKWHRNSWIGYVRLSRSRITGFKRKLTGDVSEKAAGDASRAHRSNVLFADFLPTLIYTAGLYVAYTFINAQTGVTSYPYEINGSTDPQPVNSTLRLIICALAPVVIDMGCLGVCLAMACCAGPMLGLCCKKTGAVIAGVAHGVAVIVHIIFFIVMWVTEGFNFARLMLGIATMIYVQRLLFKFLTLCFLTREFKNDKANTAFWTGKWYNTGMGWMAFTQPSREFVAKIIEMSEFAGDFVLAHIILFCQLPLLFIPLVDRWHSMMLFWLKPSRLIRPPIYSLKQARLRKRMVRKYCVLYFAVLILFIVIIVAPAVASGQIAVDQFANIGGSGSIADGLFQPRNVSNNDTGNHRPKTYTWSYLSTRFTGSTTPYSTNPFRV
T1 sequence (O42825 1-195 partner limits assumed): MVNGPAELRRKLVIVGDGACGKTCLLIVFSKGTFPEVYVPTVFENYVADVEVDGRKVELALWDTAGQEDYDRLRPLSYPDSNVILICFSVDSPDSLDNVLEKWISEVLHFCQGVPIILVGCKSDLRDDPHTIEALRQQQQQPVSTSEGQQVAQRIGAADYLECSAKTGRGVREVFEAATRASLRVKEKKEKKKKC

Turning to “1-[(4R,5R)-4,5-dihydroxy-N2-[[[(3β, 22E)-ergosta-5,7,22-trien-3-yl]oxy]carbonyl]-L-ornithine]-mulundocandin [Example 3]”, the “Inhibition of the Glucan Synthase of Candida Albicans” value is given as “good activity”.

`CC(C)=CCCC(C)C1CCC2(C)C3=C(CCC12C)C1(C)CCC(OC(=O)NC2CC(O)C(O)NC(=O)C(CO)NC(=O)C4C(O)C(C)CN4C(=O)C(C(O)Cc4ccc(O)cc4)NC(=O)C4CC(O)CN4C(=O)C(C(C)O)NC2=O)C(C)(C)C1CC3` [Example 2, 1-[(4R,5R)-4,5-dihydroxy-N2-[[[(3β)-lanosta-8,24-dien-3-yl]oxy]carbonyl]-L-ornithine]-deoxymulundocandin] (X1-[ξOrn(4,5-diOH)]T[Hyp][ξhTyr(βOH)][ξPro(3ξ-OH,4ξ-Me)]S; lactam 1-C; configuration not given here): the “Inhibition of the Glucan Synthase of Candida Albicans” value is on record as “good activity”.
